Reference: publication PMC10644971 (Bioconjugate chemistry, 2023)

Legend:
[1] = ref Erazo-Oliveras et al., Cell Chem Biol 2016, 23, 598-607; cited from earlier work
[2] = ref Erazo-Oliveras et al., Nat Methods 2014, 11, 861-867; cited from earlier work
[3] = target: 3 (disulfide-linked dimer of fTAT-ST) (HIV); experiment: covalent SnoopTag/SnoopCatcher ligation followed by SDS-PAGE (in-gel fluorescence, Coomassie) and MALDI-TOF mass spectrometry; SC (40 μM) reacted with 2 (10 μM), or SC (80 μM) with 3 (10 μM), for 1 hour in TBS (20 mM Tris, 150 mM NaCl, pH 7.4); covalent isopeptide bond; products purified by cation exchange chromatography
dfTAT-ST (2) (HIV) = experiment: as above

Row | Substance | leakage of liposomes mimicking the lipid composition of late endosomes [1] | endosomal escape of the monomeric form [2] | stoichiometry N [3] [copies] | stoichiometry N (dfTAT-ST (2) (HIV)) [copies]
1 | CK(TMR)RKKRRQRRR [fTAT, reference compound] | does not cause leakage | does not mediate detectable endosomal escape | – | –
2 | SnoopCatcher (SC) (designed binder) | – | – | 2 | 1
